Reference: patent US12264352B2, “Method for enhancing extracellular vesicle production” (Research Foundation of the City University of New York, priority 2016, dated 2025)
Non-standard residues stand in square brackets, D forms with d. Residues, ends and D or L forms follow the SMILES beside them. *: point of attachment. Acetyl(2-naphthyl) = O=C(Cc1ccc2ccccc2c1)*; pY = N[C@@H](Cc1ccc(OP(=O)(O)O)cc1)C(=O)O; NBD = O=[N+]([O-])c1ccc(*)c2nonc12

Key:
[1] = test system: MDA-MB231 breast cancer cells; experiment: Cell death of the cells used for EV production at high peptide concentration; type: cell-based; conditions: the particular cells used for EV production
From the text: The NTA can also determine the average diameter of released EVs. While the increase of polymer concentration in parental cells increases the number of released EVs, the size of EVs is constant regardless of the polypeptide concentration in parental cells (FIG. 3B, FIG. 3C, FIG. 3D, FIG. 3E). The increased number of released EVs can also be confirmed by the increase of fluorescence intensity of collected EVs (FIG. 3F), measured by fluorescence spectrometer. […] In one embodiment, production is enhanced by at least 50% relative to the control. […] The particular cells used experienced cell death at concentrations above 500 μM of NapFFKYp-NBD. Alternative upper limits may be possible for other cell line and other polypeptide precursors.

[2] = test system: MB231, HT1080, MB231-4175; experiment: Cell tests (toxicity/viability) for various cell types at 0-200 μM peptide after 60 min of incubation; type: cell-based; conditions: in general, toxicity depends on cell type; 60 min incubation; FIG. 5A
Procedure: As shown in FIG. 5A toxicity depends on the cell type, however in general cells are viable under 100 μM of peptide incubation (NapFFK(NBD)Yp). […] Thus, EV generation can be amplified as low as 5 μM of peptide incubation and shorter times to be effective.

Compound: O=C(Cc1ccc2ccccc2c1)N[C@@H](Cc1ccccc1)C(=O)N[C@@H](Cc1ccccc1)C(=O)N[C@@H](CCCCNc1ccc([N+](=O)[O-])c2nonc12)C(=O)N[C@@H](Cc1ccc(OP(=O)(O)O)cc1)C(=O)O [NapFFK(NBD)Yp] ({Acetyl(2-naphthyl)}-FFK(NBD)[pY]-OH)
- concentration above which cells experienced cell death [1]: above 500 μM
- peptide concentration under which cells are viable [2]: under 100 μM
